Assay results reported in US7413851B2, “Nucleophosmin directed diagnostics and therapeutics for multidrug resistant neoplastic disease” (Aurelium Biopharma, Inc., priority 2002, dated 2008).

What was measured:
[1] = anti-CD19 antibody immunoconjugate vs free Ida; read-out: activities; cited from earlier work
[2] = test system: E3 target cells; conditions: cited from earlier work
[3] = test system: antigen-positive E3 cell line; conditions: cited from earlier work
[4] = test system: hematological tumor cells; assay: Nucleophosmin vaccination before injection of hematological tumor cells; type: in vivo; conditions: mice vaccinated prior to injection of tumor cells vs not vaccinated
[5] = test system: NB4 cell line; assay: Cytotoxicity of Ara-C, MTT staining of viable cells; type: cell-based; conditions: 0 to 1 mM, 72 hours
Experimental: The cytotoxicity of cytosine-β-D-arabinoside (Ara-C) against CEM, HL60 and NB4 cell lines was examined. Cells were seeded in 96 well plates at 1.5×10^4 cells/well in RPMI1640, 10% FBS, 1 mM HEPES or α-MEM, 10% FBS for HL60 and NB4 or CEM, respectively, with varying concentrations of Ara-C (0 to 1 mM). Cytotoxicity was assessed after 72 hours by staining the viable cells with MTT.

## CC(=O)[C@]1(O)Cc2c(O)c3c(c(O)c2[C@@H](O[C@H]2C[C@H](N)[C@H](O)[C@H](C)O2)C1)C(=O)c1ccccc1C3=O [Ida, Idarubicin]
[1]
  IC50: 12 nM
[2]
  IC50: 120 nM

## O=c1[nH]c(=O)n([C@H]2C[C@H](O)[C@@H](CO)O2)cc1F [FUDR, 5-fluoro-2′-deoxyuridine]
[3]
  IC50: 0.4 nM

## nucleophosmin: purified full length murine nucleophosmin protein used as vaccine antigen, optionally with adjuvant
[4]
  tumor size: smaller

## Nc1ccn([C@@H]2O[C@H](CO)[C@@H](O)[C@@H]2O)c(=O)n1 [Ara-C, cytosine-β-D-arabinoside]
[5]
  cytotoxicity against NB4 (FIG. 14): resistance
